Consider four compounds from ChEMBL document CHEMBL5584320, “Pemuchiamides A and B, Proline-Rich Linear Lipopeptides, Isolated from a Marine Hormoscilla sp. Cyanobacterium” (J Nat Prod, 2024).

For assay [1], the system named is Trypanosoma brucei rhodesiense. Put plainly: Antitrypanosomal activity against blood stream form of Trypanosoma brucei rhodesiense IL-1501 assessed as growth inhibition incubated for 69 hrs by alamar blue staining based microplate fluorescence scanner analysis. It counts as functional, organism-based. Particulars: IL-1501, 69 h. (Alamar Blue is a resazurin reagent that responds to reducing activity.)

The test system of a further assay is HeLa. Put plainly: Growth inhibition of human HeLa cells assessed as reduction cell viability incubated for 72 hrs by MTT assay. It counts as functional, cell-based. (In general: Tetrazolium assays rely on reduction of a dye to a coloured formazan, in cell work by metabolically active cells.)
The next assay relates to HL-60. Put plainly: Growth inhibition of human HL-60 cells assessed as reduction cell viability incubated for 72 hrs by MTT assay. The conditions noted are these: HL-60, 72 h. It counts as functional, cell-based.

For `N=C(N)c1ccc(OCCCCCOc2ccc(C(=N)N)cc2)cc1` [PENTAMIDINE], the IC50 in assay [1] worked out at 0.004 µM.
Take `CC[C@H](C)[C@H](NC(=O)[C@@H]1CCCN1C(=O)[C@@H](CC(C)C)NC(=O)[C@H]1CSC([C@@H]2CCCN2C(=O)[C@@H]2CCCN2C(=O)[C@@H](Cc2ccccc2)N(C)C(=O)CNC(=O)[C@@H](NC(=O)CCCNC(=O)CCCc2ccc(O)cc2)C(C)C)=N1)C(=O)N[C@H](Cc1ccccc1)C(=O)N1CCC[C@H]1C(=O)OC`: the results for the IC50 (with HeLa; in the assay on HL-60; in assay [1]) were 2.9 µM, 1.4 µM and 0.63 µM, respectively.
Consider `CC[C@H](C)[C@H](NC(=O)[C@@H]1CCCN1C(=O)[C@@H](CC(C)C)NC(=O)[C@H]1CSC([C@@H]2CCCN2C(=O)[C@@H]2CCCN2C(=O)[C@@H](Cc2ccccc2)N(C)C(=O)CNC(=O)[C@@H](NC(=O)C[C@H](O)CNC(=O)CCCc2ccc(O)cc2)C(C)C)=N1)C(=O)N[C@H](Cc1ccccc1)C(=O)N1CCC[C@H]1C(=O)OC`, for which the half-inhibitory concentration (IC50) turned out to be 3.9 µM with HeLa, 2.1 µM in the assay on HL-60 and 5.4 µM in assay [1].
As to `COc1cccc2c1C(=O)c1c(O)c3c(c(O)c1C2=O)C[C@@](O)(C(=O)CO)C[C@@H]3O[C@H]1C[C@H](N)[C@H](O)[C@H](C)O1` [DOXORUBICIN], the IC50 in the assay with HeLa worked out at 0.29 µM; in the assay on HL-60, 0.011 µM.

For orientation: IC50 means the concentration needed to halve the response being measured.
